The term IC50 denotes the concentration that inhibits the measured activity by half.

The source of these data is patent US9949992B2, “Bisphosphonate compositions and methods for treating and\or reducing cardiac dysfunction” (DUKE UNIVERSITY, priority 2011, dated 2018).

Assay [1] in a line: Hydroxyapatite (HAP) affinity by chromatographic profiling on HAP column. As to conditions: phosphate gradient 1 mM to 1000 mM, pH 6.8. It is filed as binding.
The target in assay [2] is T1, human farnesyl pyrophosphate synthase (FPPS) (Homo sapiens, UniProt P14324).
T1 construct: made in house
T1 sequence (P14324 67-419 limits assumed): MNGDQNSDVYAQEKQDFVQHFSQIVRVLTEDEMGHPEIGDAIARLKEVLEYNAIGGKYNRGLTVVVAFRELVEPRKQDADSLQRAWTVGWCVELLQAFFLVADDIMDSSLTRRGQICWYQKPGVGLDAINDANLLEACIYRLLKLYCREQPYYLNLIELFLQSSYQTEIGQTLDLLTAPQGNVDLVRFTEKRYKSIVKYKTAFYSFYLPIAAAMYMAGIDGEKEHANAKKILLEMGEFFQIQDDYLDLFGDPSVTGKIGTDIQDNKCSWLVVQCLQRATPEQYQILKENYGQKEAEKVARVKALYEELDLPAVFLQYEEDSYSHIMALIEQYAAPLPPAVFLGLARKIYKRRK
Kind of assay: FPPS inhibition, in vitro, recombinant enzyme. It is filed as biochemical. As to conditions: GPP and IPP 10 μM each, 37° C., read-out: FFPPS nM IC50.

A further assay relates to ERK. Kind of assay: Expression and activation (phosphorylation) of ERK in myocardial tissue, SHAM or TAC mice, immunoblot and densitometry. The format is in vivo, mouse. For orientation: A western blot detects proteins with antibodies after separation by electrophoresis.

For the compound `CCCCCN(C)CCC(O)(P(=O)(O)O)P(=O)(O)O` [Ibandronate], the “HAP mineral binding (retention time in mins)” value (from here on “HAP mineral binding”) in assay [1] is approximately 11 min.

On to `O=P(O)(O)C(O)(Cc1cccnc1)P(=O)(O)O` [Risedronate], for which the “HAP mineral binding” value in assay [1] was found to be 9.97 min.

`O=P(O)(O)C(O)(Cc1cnc2ccccn12)P(=O)(O)O` [Minodronate]: in assay [1], the “HAP mineral binding” value turned out to be 10.33 min.

For the compound `O=P(O)(O)C(F)(Cc1cnc2ccccn12)P(=O)(O)O` [Ox-14, 1-fluoro-2-(imidazo-[1,2-a]pyridine-3-yl)-ethyl-bisphosphonic acid], the IC50 in assay [2] was 2.5 nM. Besides, in the assay with ERK (SHAM animals, FIG. 1, myocardial lysate, subcutaneous dosing), the “level of expression of ERK” value was “did not change”. In the assay on ERK (SHAM animals, FIG. 1 and FIG. 2, myocardial lysate), the “phosphorylation of ERK” value is given as “not as evident”. Also, the “pERK/tERK ratio, fold increase” value with ERK (SHAM group, with respect to saline treated SHAM animals, FIG. 3) is reported as approximately 3 fold; with ERK (TAC group relative to saline SHAM group, FIG. 3), approximately 5 fold. Further, the “level of phosphorylation of ERK” value with ERK (TAC conditioned animals, FIG. 2) is given as “substantial increase”. In addition, the “pERK/tERK activity relative to zoledronic acid administered TAC group” value with ERK (TAC group, FIG. 3) is listed as “about double”. Further, in assay [1], the “HAP mineral binding” value was 6.17 min.
